From patent US20230132823A1, “BI-FUNCTIONAL COMPOUNDS AND METHODS FOR TARGETED UBIQUITINATION OF ANDROGEN RECEPTOR” (MONTELINO THERAPEUTICS, INC., priority 2020, published 2023)

Columns and labels:
AR-FL [1] = molecular target: T1, AR-FL (Homo sapiens, UniProt P10275, DUP590-628/H875Y); assay: Immunoblot of AR-FL polyubiquitination in 22Rv1 pretreated with MG132; type: cell-based; set-up: decreased AR-V7 and AR-FL protein expression levels in 22Rv1 cells; endogenous in cells; host or cells: 22Rv1; details: 22Rv1 pretreated with MG132 two hours; compound 1 μM
T1 sequence (P10275 with tags, fused parts or gaps DUP590-628/H875Y): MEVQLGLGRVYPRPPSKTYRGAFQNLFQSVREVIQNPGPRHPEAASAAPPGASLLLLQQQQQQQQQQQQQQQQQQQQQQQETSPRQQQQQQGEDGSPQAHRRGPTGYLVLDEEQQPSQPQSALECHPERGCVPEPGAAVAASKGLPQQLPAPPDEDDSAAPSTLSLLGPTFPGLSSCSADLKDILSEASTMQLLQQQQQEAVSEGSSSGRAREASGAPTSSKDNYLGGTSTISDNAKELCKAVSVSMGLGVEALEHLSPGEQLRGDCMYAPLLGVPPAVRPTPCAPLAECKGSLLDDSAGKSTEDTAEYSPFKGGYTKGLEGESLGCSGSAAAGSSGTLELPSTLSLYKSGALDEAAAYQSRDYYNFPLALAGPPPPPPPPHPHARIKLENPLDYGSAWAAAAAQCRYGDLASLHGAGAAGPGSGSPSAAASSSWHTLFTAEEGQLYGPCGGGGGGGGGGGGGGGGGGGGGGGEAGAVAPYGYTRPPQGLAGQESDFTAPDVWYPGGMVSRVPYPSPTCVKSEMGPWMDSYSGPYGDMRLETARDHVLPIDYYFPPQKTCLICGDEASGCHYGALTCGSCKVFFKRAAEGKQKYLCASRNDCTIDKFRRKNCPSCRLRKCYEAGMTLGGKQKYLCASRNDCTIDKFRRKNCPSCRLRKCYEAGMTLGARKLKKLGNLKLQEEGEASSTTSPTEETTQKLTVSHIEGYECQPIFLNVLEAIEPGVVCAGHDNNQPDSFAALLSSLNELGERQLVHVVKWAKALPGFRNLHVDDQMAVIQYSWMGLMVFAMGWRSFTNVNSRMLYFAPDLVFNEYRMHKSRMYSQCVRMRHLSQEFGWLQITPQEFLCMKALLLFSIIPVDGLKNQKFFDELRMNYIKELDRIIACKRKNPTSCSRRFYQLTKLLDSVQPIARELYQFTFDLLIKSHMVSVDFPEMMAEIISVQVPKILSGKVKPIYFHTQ
Procedure: (§1) Immunoblot Analysis. CaP cells are collected and lysed with the lysis buffer (20 mM Tris-HCl (pH 7.5), 150 mM NaCl, 1 mM Na2EDTA, 1 mM EGTA, 1% Triton, 2.5 mM sodium pyrophosphate, 1 mM beta-glycerophosphate, 1 mM Na3VO4, and 1 μg/ml leupeptin) containing 1 mM phenylmethylsulfonyl fluoride (PMSF). Cell lysates are then centrifuged and protein in the supernatant is quantified. After separating 25-50 μg of protein using SDS-PAGE, samples are incubated with AR-V7, GR, PR, ERα, AR-FL, ubiquitin, or β-actin antibodies. For AR-V7, AR-FL, PR, GR, and ERα immunoblots, primary antibody is diluted 1:1000 in 5% skim milk. For the β-actin immunoblot, 1:10000 diluted primary antibody is used. All membranes are incubated overnight at 4° C. Following the incubation with appropriate secondary antibody, immunoblots are analyzed using SuperSignal West Femto Maximum Sensitivity Substrate (ThermoFisher).
To determine the ubiquitination status of AR proteins, 22Rv1 is pretreated with MG132 for two hours prior to adding Compound of Example 16 (at 1 μM).

AR-FL [2] = assay: Immunoblot of AR-FL in harvested xenograft tumors; type: in vivo, human
Procedure: as §1, with “All membranes are incubated overnight at 4° C.” left out
Mice are then treated daily with Test Compound with or without enzalutamide via the indicated route (intratumoral, intraperitoneal, or oral) for five to six weeks. At the end of the study, all animals are sacrificed and tumors are harvested and analyzed. Statistical significance is calculated using the Student's t-test for paired comparisons of experimental groups and, where appropriate, by Wilcoxon rank sum test, and by 2-way ANOVA. […]
The in vivo effects of the Compound of Example 16 are assessed in mice using enzalutamide-resistant CaP xenografts. […]

[3] = system: Enzalutamide-resistant CaP tumor xenografts; assay: Enzalutamide-resistant CaP tumor xenograft, systemic (IP or oral) dosing; type: in vivo, mice; details: four weeks, with enzalutamide, control 2200 mm^3
Procedure: In Vivo Study. To explore the therapeutic potential of Test Compound, 22Rv1, 22Rv1-Enz^R, VCaP, and VCaP-Enz^R are injected into nu/nu immunodeficient mice. When the resulting tumors reached an average size of 3 mm in diameter, all animals are surgically castrated via bilateral orchiectomy and divided into four groups of five mice each. For anesthesia, 3% isoflurane gas inhalation is used. Tumor size was measured using calipers and tumor volume was calculated using the formula: tumor volume=length×width^2[…].
Mice are then treated daily with Test Compound with or without enzalutamide via the indicated route (intratumoral, intraperitoneal, or oral) for five to six weeks. At the end of the study, all animals are sacrificed and tumors are harvested and analyzed. Statistical significance is calculated using the Student's t-test for paired comparisons of experimental groups and, where appropriate, by Wilcoxon rank sum test, and by 2-way ANOVA. In vitro experiments are repeated a minimum of three times.
To test whether the Compound is active systemically, an identical study is carried out as above except for delivering the Compound intraperitoneally (IP) or orally for four weeks. Enzalutamide-resistant CaP tumor xenografts are established in twelve mice and three each are assigned to the following four groups: control IP (vehicle), control oral (vehicle), 8.3 mg/kg IP, and 8.3 mg/kg oral. […]

[4] = system: 22Rv1 cells transfected with AR-V7 or AR-FL; assay: Proliferation of 22Rv1 cells transfected with AR-V7 and/or AR-FL; type: cell-based, human; details: 1 μM
Source text: Transient Transfections. One μg of a plasmid containing cDNA of AR-V7 or AR-FL is transfected into indicated the CaP cell lines on 6-well plates. Three μl of lipofectamine 3000 is used for each transfection.

Cc1ncsc1-c1ccc([C@H](C)NC(=O)[C@@H]2C[C@@H](O)CN2C(=O)[C@@H](NC(=O)CCCCNC(=O)COc2c(-c3csc(N4CCOCC4)n3)ccc(F)c2F)C(C)(C)C)cc1 [Example 16, (2S,4R)-1-((S)-2-(5-(2-(2,3-difluoro-6-(2-morpholinothiazol-4-yl)phenoxy)acetamido)pentanamido)-3,3-dimethylbutanoyl)-4-hydroxy-N-((S)-1-(4-(4-methylthiazol-5-yl)phenyl)ethyl)pyrrolidine-2-carboxamide]
time of detection of AR-FL polyubiquitination after treatment (AR-FL [1]): 24 h
AR-FL protein expression in Enz^R CaP tumors (AR-FL [2]; IP administration): decreased
AR-FL protein level in treated tumors (AR-FL [2]; intratumoral, 22Rv1-Enz^R xenograft, end of study): significant decrease
tumor size ([3]; 8.3 mg/kg IP): approximately 1000 mm^3
tumor size ([3]; 8.3 mg/kg oral (PO)): approximately 700 mm^3
inhibitory effect after transfection of both AR-V7 and AR-FL into 22Rv1 cells ([4]; both transfected): completely abrogated
inhibitory effect after transfecting AR-V7 or AR-FL into 22Rv1 cells ([4]; single transfection): partial resistance
